These are literature values, as cited in patent US9267111B2, “Methods of treating female subjects in need of in vitro fertilization” (The General Hospital Corporation, priority 2004, dated 2016).

Structures are written as SMILES.

The test system of the data set is germ line stem cells and spermatogonia in irradiated testicular tissue. The following applies: versus untreated tissues.

For the molecule `CCCCCCCCCCCCC/C=C/[C@@H](O)[C@@H](N)COP(=O)(O)O` [S1P, Sphingosine-1-phosphate], the “numbers of primary spermatocytes and spermatogonia” value is “higher than untreated tissues”.
